Data reported in EP4813977A1, “NOVEL COMPOUND AND USE THEREOF” (Protier Biotech Inc., priority 2023, dated 2025).

Columns and labels:
[1] = tested on: T-cell leukemia cell line Jurkat; assay: Cell viability assay (Cell Counting Kit-8), Jurkat; format: cell-based; conditions: Homo sapiens, 72 hours, CCK-8, absorbance 450 nm
Protocol: (§1) To evaluate the cytotoxicity of the compounds synthesized in the Preparation Examples against cancer cells, a cell viability assay following treatment with the synthesized compounds was performed using a T-cell leukemia cell line Jurkat (KCLB, Cat# 40152), a human acute monocytic leukemia cell line MV-4-11 (ATCC, Cat# CRL-9591), and a human multiple myeloma cell line MM.1S (ATCC, Cat# CRL-2974).
(§2) As a culture medium for the cell lines, an RPMI medium containing 10 % heat-inactivated FBS and 1 % penicillin/streptomycin (P/S) antibiotics was used. The culture medium was stored refrigerated and warmed in a 37 °C water bath before use. Each cell line was used for the test after a stabilization period of at least 2 weeks after thawing, and cell culture was performed based on information provided by the cell line manufacturer regarding the thawing and subculture conditions.
(§3) The Jurkat, MV-4-11, or MM.1S cell line was seeded in a 96-well plate at a density of 1 × 10^4 cells/well and incubated in a 37 °C CO2 incubator overnight. After incubation, a prepared test compound was applied to each cell line, and the cells were incubated in a 37 °C CO2 incubator for 72 hours. After 72 hours of incubation, a Cell Counting Kit-8 (Dojindo, Cat# CK04-20) reagent was added, and the cells were incubated in a 37 °C CO2 incubator. Then, the absorbance was measured at 450 nm using a SpectraMax M3 Microplate Reader (N=2, duplicate measurement). The evaluation concentrations for evaluating the cytotoxicity of the compounds were 10 points: 100 µM, 20 µM, 4 µM, 0.8 µM, 0.16 µM, 0.032 µM, 0.0064 µM, 0.00128 µM, 0.000256 µM, and 0 µM, and the test was performed at 2 wells/concentration point (n=2). A GI50 was derived using a GraphPad Prism program.

[2] = tested on: human multiple myeloma cell line MM.1S; assay: Cell viability assay (Cell Counting Kit-8), MM.1S; format: cell-based; conditions: MM1.S, 72 hours, CCK-8, absorbance 450 nm
Protocol: as §1, §2, §3

Cereblon (CRBN) protein = biological target: T1, Cereblon (CRBN) protein (Homo sapiens, UniProt Q96SW2); assay: CRBN binding affinity, E3scan (Eurofins) competition binding with qPCR read-out; conditions: lower % Ctrl = stronger binding, DMSO = 100 % Ctrl, lenalidomide = 0 % Ctrl
T1 construct: purchased Eurofins (E3scan service); host or cells: HEK-293
Protocol: Specifically, CRBN was produced using a HEK-293 cell line and labeled with DNA for qPCR detection. Streptavidin-coated magnetic beads were treated with a biotinylated small-molecule ligand at room temperature for 30 minutes to generate an affinity resin for E3scan analysis. The liganded beads were blocked with excess biotin and washed with a blocking buffer (SeaBlock (Pierce), 1 % BSA, 0.05 % Tween 20, 1 mM DTT) to remove unbound ligands and prevent non-specific binding. […] The test compound was prepared as a 100× stock in 100 % DMSO and diluted directly into the assay solution. All reactions were performed in a polypropylene 384-well plate with a final reaction volume of 0.02 mL. […] The CRBN concentration in the eluate was measured by qPCR. […] A lower '% Ctrl' indicates a stronger binding affinity. […] ((test compound signal−positive control signal)/(negative control signal−positive control signal)) × 100 [formula]

[3] = tested on: human acute monocytic leukemia cell line MV-4-11; assay: Cell viability assay (Cell Counting Kit-8), MV-4-11; format: cell-based; conditions: MV4-11, 72 hours, CCK-8, absorbance 450 nm
Protocol: as §1, §2, §3

| SMILES | GI50 [1] [nM] | GI50 [2] [nM] | CRBN binding affinity (% Ctrl @ 5µM) (Cereblon (CRBN) protein) | GI50 [3] [nM] |
| --- | --- | --- | --- | --- |
| O=C1CCC(N2Cc3cc(C(=O)c4cc5ccccc5[nH]4)ccc3C2=O)C(=O)N1 (centres unmarked) [Compound 3, 3-(5-(1H-indole-2-carbonyl)-1-oxoisoindolin-2-yl)piperidine-2,6-dione] | ≤ 100 | ≤ 100 | A (0 ≤ '% Ctrl' < 0.1) | ≤ 100 |
| O=C1CCC(N2Cc3cc(C(=O)c4c[nH]c5ccccc45)ccc3C2=O)C(=O)N1 (centres unmarked) [Compound 4, 3-(5-(1H-indole-3-carbonyl)-1-oxoisoindolin-2-yl)piperidine-2.6-dione] | 100 to 1000 | ≤ 100 | B (0.1 ≤ '% Ctrl' < 1) | – |
| O=C1CCC(N2Cc3cc(C(=O)c4ccc(Nc5ccccc5)cc4)ccc3C2=O)C(=O)N1 (centres unmarked) [Compound 15, 3-(1-oxo-5-(4-(phenylamino)benzoyl)isoindolin-2-yl)piperidine-2,6-dione] | 100 to 1000 | ≤ 100 | A (0 ≤ '% Ctrl' < 0.1) | ≤ 100 |
| O=C1CCC(N2Cc3cc(C(=O)c4n[nH]c5ccccc45)ccc3C2=O)C(=O)N1 (centres unmarked) [Compound 17, 3-(5-(1H-indazole-3-carbonyl)-1-oxoisoindolin-2-yl)piperidine-2,6-dione] | 100 to 1000 | ≤ 100 | A (0 ≤ '% Ctrl' < 0.1) | ≤ 100 |
| O=C1CCC(N2Cc3cc(C(=O)c4c[nH]c5cc(Cl)ccc45)ccc3C2=O)C(=O)N1 (centres unmarked) [Compound 18, 3-(5-(6-chloro-1H-indole-3-carbonyl)-1-oxoisoindolin-2-yl)piperidine-2,6-dione] | 100 to 1000 | ≤ 100 | – | ≤ 100 |
| O=C1CCC(N2Cc3cc(C(=O)c4cc5ccc(F)cc5[nH]4)ccc3C2=O)C(=O)N1 (centres unmarked) [Compound 19, 3-(5-(6-fluoro-1H-indole-2-carbonyl)-1-oxoisoindolin-2-yl)piperidine-2,6-dione] | ≤ 100 | ≤ 100 | – | – |
| O=C1CCC(N2Cc3cc(C(=O)c4cc5ccc(Cl)cc5[nH]4)ccc3C2=O)C(=O)N1 (centres unmarked) [Compound 20, 3-(5-(6-chloro-1H-indole-2-carbonyl)-1-oxoisoindolin-2-yl)piperidine-2,6-dione] | ≤ 100 | ≤ 100 | – | – |
| O=C1CCC(N2Cc3cc(C(=O)c4ccc5cn[nH]c5c4)ccc3C2=O)C(=O)N1 (centres unmarked) [Compound 21, 3-(5-(1H-indazole-6-carbonyl)-1-oxoisoindolin-2-yl)piperidine-2,6-dione] | 100 to 1000 | 1000 to 10000 | A (0 ≤ '% Ctrl' < 0.1) | > 10000 |
| CNc1ccc2cc(C(=O)c3ccc4c(c3)CN(C3CCC(=O)NC3=O)C4=O)[nH]c2c1 (centres unmarked) [Compound 22, 3-(5-(6-(methylamino)-1H-indole-2-carbonyl)-1-oxoisoindolin-2-yl)piperidine-2,6-dione] | ≤ 100 | ≤ 100 | A (0 ≤ '% Ctrl' < 0.1) | ≤ 100 |
| O=C1CCC(N2Cc3cc(C(=O)c4cc(-c5ccccc5)c[nH]4)ccc3C2=O)C(=O)N1 (centres unmarked) [Compound 27, 3-(1-oxo-5-(4-phenyl-1H-pyrrole-2-carbonyl)isoindolin-2-yl)piperidine-2,6-dione] | ≤ 100 | ≤ 100 | A (0 ≤ '% Ctrl' < 0.1) | – |
| O=C1CCC(N2Cc3cc(C(=O)N4Cc5cccc6cccc4c56)ccc3C2=O)C(=O)N1 (centres unmarked) [Compound 31, 3-(5-(1,2-dihydrobenxo[cd]indole-1-carbonyl)-1-oxoisoindolin-2-yl)piperidine-2,6-dione] | 100 to 1000 | ≤ 100 | A (0 ≤ '% Ctrl' < 0.1) | – |
| O=C1CCC(N2Cc3cc(C(=O)c4ccc(-c5ccccc5)cc4)ccc3C2=O)C(=O)N1 (centres unmarked) [Compound 33, 3-(5-([1,1'-biphenyl]-4-carbonyl)-1-oxoisoindolin-2-yl)piperidine-2,6-dione] | ≤ 100 | ≤ 100 | – | – |
| O=C1CCC(N2Cc3cc(C(=O)c4cc5ccccc5o4)ccc3C2=O)C(=O)N1 (centres unmarked) [Compound 34, 3-(5-(benzofuran-2-carbonyl)-1-oxoisoindolin-2-yl)piperidine-2,6-dione] | ≤ 100 | ≤ 100 | A (0 ≤ '% Ctrl' < 0.1) | – |
| O=C1CCC(N2Cc3cc(C(=O)c4cn(-c5ccccc5)c5ccccc45)ccc3C2=O)C(=O)N1 (centres unmarked) [Compound 35, 3-(1-oxo-5-(1-phenyl-1H-indole-3-carbonyl)isoindolin-2-yl)piperidine-2,6-dione] | ≤ 100 | ≤ 100 | A (0 ≤ '% Ctrl' < 0.1) | – |
| O=C1CCC(N2Cc3cc(C(=O)c4coc5ccccc45)ccc3C2=O)C(=O)N1 (centres unmarked) [Compound 37, 3-(5-(benzofuran-3-carbonyl)-1-oxoisoindolin-2-yl)piperidine-2,6-dione] | 100 to 1000 | ≤ 100 | C (1 ≤ % Ctrl' < 10) | – |
| O=C1CCC(N2Cc3cc(C(=O)c4ccc5c(c4)OCO5)ccc3C2=O)C(=O)N1 (centres unmarked) [Compound 42, 3-(5-(benzo[d][1,3]dioxole-5-carbonyl)-1-oxoisoindolin-2-yl)piperidine-2,6-dione] | ≤ 100 | ≤ 100 | – | – |
| O=C1CCC(N2Cc3cc(C(=O)c4ccc5ccccc5c4)ccc3C2=O)C(=O)N1 (centres unmarked) [Compound 44, 3-(5-(2-naphthoyl)-1-oxoisoindolin-2-yl)piperidine-2,6-dione] | ≤ 100 | > 10000 | – | – |
| CN(C)c1ccc(C(=O)c2ccc3c(c2)CN(C2CCC(=O)NC2=O)C3=O)cc1 (centres unmarked) [Compound 46, 3-(5-(4-(dimethylamino)benzoyl)-1-oxoisoindolin-2-yl)piperidine-2,6-dione] | ≤ 100 | ≤ 100 | – | – |
| O=C1CCC(N2Cc3cc(C(=O)c4ccc(Br)cc4)ccc3C2=O)C(=O)N1 (centres unmarked) [Compound 49, 3-(5-(4-bromobenzoyl)-1-oxeisoindolin-2-yl)piperidine-2,6-dione] | ≤ 100 | 1000 to 10000 | – | – |
| O=C1CCC(N2Cc3cc(C(=O)c4ccc(O)cc4)ccc3C2=O)C(=O)N1 (centres unmarked) [Compound 52, 3-(5-(4-hydroxybenzoyl)-1-oxoisoindolin-2-yl)piperidine-2,6-dione] | 100 to 1000 | ≤ 100 | – | – |
| O=C1CCC(N2Cc3cc(C(=O)c4ccc(C5CCCCC5)cc4)ccc3C2=O)C(=O)N1 (centres unmarked) [Compound 55, 3-(5-(4-cyclohexylbenzoyl)-1-oxoisoindolin-2-yl)piperidine-2,6-dione] | ≤ 100 | ≤ 100 | – | – |
| Cn1c(C(=O)c2ccc3c(c2)CN(C2CCC(=O)NC2=O)C3=O)cc2ccccc21 (centres unmarked) [Compound 59, 3-(5-(1-methyl-1H-indole-2-carbonyl)-1-oxoisoindolin-2-yl)piperidine-2,6-dione] | 100 to 1000 | ≤ 100 | – | – |
| CC(C)(C)c1ccc(C(=O)c2ccc3c(c2)CN(C2CCC(=O)NC2=O)C3=O)cc1 (centres unmarked) [Compound 63, 3-(5-(4-(tert-butyl)benzoyl)-1-oxoisoindolin-2-yl)piperidine-2,6-dione] | ≤ 100 | ≤ 100 | – | – |
| O=C1CCC(N2Cc3cc(C(=O)c4ccc5ccccc5n4)ccc3C2=O)C(=O)N1 (centres unmarked) [Compound 70, 3-(1-oxo-5-(quinoline-2-carbonyl)isoindolin-2-yl)piperidine-2,6-dione] | 1000 to 10000 | > 10000 | – | – |
